The test system of this experiment is PKC mediated IL-2 production. Kind of experiment: IL-2 ELISA, human primary T cell, anti CD3+CD28+. In kind it is cell-based. As to conditions: human primary T cells stimulated with αCD3 and αCD28, 24 hours. The protocol:
Compounds 1-328 were tested in a whole cell functional assay for PKC mediated IL-2 production as follows. Human primary T cell isolation and culture: Human primary T cells were prepared as follows. Whole blood was obtained from a healthy volunteer, mixed 1:1 with PBS, layered on to Ficoll Hypaque (Amersham Pharmacia Biotech, Piscataway, N.J., Catalog #17-1440-03) in 2:1 blood/PBS:ficoll ratio and centrifuged for 30 minutes at 4° C. at 1750 rpm. The cells at the serum: ficoll interface were recovered and washed twice with 5 volumes of PBS. These freshly isolated human peripheral blood mononuclear cells were cultured in Yssel's medium containing 40 U/ml IL2 in a flask pre-coated with […] αCD3 and 5 μg/ml αCD28 (Anti-Human CD3, BD Pharmingen Catalog #555336, Anti-Human CD28, Beckman Coulter Catalog #IM1376). The cells were stimulated for 3-4 days, then transferred to a fresh flask and maintained in RPMI (RPMI-1640 with L-Glutamine; Mediatech, Inc., Herndon Va., cat. #10-040-CM) with 10% FBS and 40 U/ml IL-2. The primary T-cells were then washed twice with PBS to remove the IL-2.
Primary T cell stimulation and IL2 ELISA: Human primary T cells (100,000 cells per well) were pre-incubated with or without test compound in Yssel's medium for 1 hour at 37° C. Cells were then stimulated by transferring them to round-bottom 96-well plates pre-coated with […] αCD3 and 5 μg/ml αCD28. For counter assay, cells were instead stimulated by adding 8× stock solutions of PMA and ionomycin in Yssels (for final concentrations of 0.5 ng/ml PMA and 0.1 uM ionomycin, both from Calbiochem). Cells were incubated at 37° C. for 24 hours before 100 μL supernatants were harvested for quantification of IL-2 by ELISA using Human IL-2 Duoset ELISA Kit from R and D Systems, Cat. # DY202E.

Results on 27 compounds are retold here after patent publication US9682976B2, “Protein kinase C inhibitors and uses thereof” (Rigel Pharmaceuticals, Inc., priority 2012, dated 2017).

Structures can show the parent of a compound that is named as a salt.

Turning to `COc1cc(Nc2ncc(F)c(N[C@H]3C[C@@H]4CCCN4C(C)(C)C3)n2)cc(-n2nnnc2C)c1` (single isomer, unassigned) [Compound 13, (R/S, S/R, R/R, S/S)-5-fluoro-N4-(octahydro-5,5-dimethylindolizin-7-yl)N2-(3-methoxy-5-(5-methyl-1H-tetrazol-1-yl)phenyl)pyrimidine-2,4-diamine], the concentration giving a half-maximal response (EC50) was under 100 nM. As for `COc1cc(Nc2ncc(F)c(N[C@@H]3C[C@@H]4CCCN4C(C)(C)C3)n2)cc(-n2nnnc2C)c1` (single isomer, unassigned) [Compound 14, (R/S, S/R, R/R, S/S)-5-fluoro-N4-(octahydro-5,5-dimethylindolizin-7-yl)N2-(3-methoxy-5-(5-methyl-1H-tetrazol-1-yl)phenyl)pyrimidine-2,4-diamine], the EC50 was under 100 nM. Under “Homo sapiens, T-cell, 24 h”, `Cn1nnn(-c2cc(Nc3ncc(F)c(NC4CCN5C(CCC5(C)C)C4)n3)c(F)cc2C2CC2)c1=O` (single isomer, unassigned) [Compound 34, 1-(5-(5-fluoro-4-(octahydro-3,3-dimethylindolizin-7-ylamino)pyrimidin-2-ylamino)-2-cyclopropyl-4-fluorophenyl)-4-methyl-1H-tetrazol-5(4H)-one] came in with an EC50 of 1000 to 10000 nM.

`Cn1nnn(-c2cc(Nc3ncc(F)c(NC4CCN5C(CCC5(C)C)C4)n3)c(F)cc2C2CC2)c1=O` (single isomer, unassigned) [Compound 35, 1-(5-(5-fluoro-4-(octahydro-3,3-dimethylindolizin-7-ylamino)pyrimidin-2-ylamino)-2-cyclopropyl-4-fluorophenyl)-4-methyl-1H-tetrazol-5(4H)-one] had an EC50 of 1000 to 10000 nM.

Consider `Cn1nnn(-c2cc(Nc3ncc(F)c(N[C@@H]4CCN5[C@@H](CCC5(C)C)C4)n3)c(F)cc2C2CC2)c1=O` (single isomer, unassigned) [Compound 36], for which the EC50 is 1000 to 10000 nM. The same measure, in the same setting: next, `Cn1nnn(-c2cc(Nc3ncc(F)c(N[C@H]4CCN5[C@@H](CCC5(C)C)C4)n3)c(F)cc2C2CC2)c1=O` (single isomer, unassigned) [Compound 37]: 1000 to 10000 nM. Compound `Cn1nnn(-c2cc(Nc3ncc(F)c(NC4CC5CCCN5C(C)(C)C4)n3)ccc2OC2COC2)c1=O` (single isomer, unassigned) [Compound 39, 1-(5-(5-fluoro-4-(octahydro-5,5-dimethylindolizin-7-ylamino)pyrimidin-2-ylamino)-2-(oxetan-3-yloxy)phenyl)-4-methyl-1H-tetrazol-5(4H)-one] showed an EC50 (Homo sapiens, T-cell, 24 h) of 100 to 500 nM. `CC1(C)CC(Nc2nc(Nc3cc(-n4cnnn4)c(C4CC4)cc3F)ncc2F)CC2CCCN21` (single isomer, unassigned) [Compound 54, N^2-(4-cyclopropyl-2-fluoro-5-(1H-tetrazol-1-yl)phenyl)-5-fluoro-N^4-(octahydro-5,5-dimethylindolizin-7-yl)pyrimidine-2,4-diamine] registered an EC50 (Homo sapiens, T-cell, 24 h) of under 100 nM. The compound `CC1(C)CC(Nc2nc(Nc3cc(-n4cnnn4)c(C4CC4)cc3F)ncc2F)CC2CCCN21` (single isomer, unassigned) [Compound 55, N^2-(4-cyclopropyl-2-fluoro-5-(1H-tetrazol-1-yl)phenyl)-5-fluoro-N^4-(octahydro-5,5-dimethylindolizin-7-yl)pyrimidine-2,4-diamine] displayed an EC50 of 100 to 500 nM.

Compound `CC1(C)CC(Nc2nc(Nc3ccc(O[C@@H]4CCOC4)c(C#N)c3)ncc2F)CC2CCCN21` (single isomer, unassigned) [Compound 58] registered an EC50 of 1000 to 10000 nM. For the compound `CC1(C)CC(Nc2nc(Nc3ccc(O[C@@H]4CCOC4)c(C#N)c3)ncc2F)CC2CCCN21` (single isomer, unassigned) [Compound 59], the EC50 was 100 to 500 nM. Compound `CC1(C)CC(Nc2nc(Nc3ccc(O[C@H]4CCOC4)c(C#N)c3)ncc2F)CC2CCCN21` (single isomer, unassigned) [Compound 61] returned an EC50 of 500 to 1000 nM. As for `CC1(C)CC(Nc2nc(Nc3ccc(O[C@H]4CCOC4)c(C#N)c3)ncc2F)CC2CCCN21` (single isomer, unassigned) [Compound 62], the EC50 is 100 to 500 nM. Still for that read-out and setting: next, `Cn1nc2n(c1=O)-c1cc(Nc3ncc(F)c(N[C@@H]4C[C@@H]5CCCN5C(C)(C)C4)n3)ccc1OCC2(C)O` (single isomer, unassigned) [Compound 294]: 500 to 1000 nM. As for `Cn1nnn(-c2cc(Nc3ncc(F)c(N[C@@H]4C[C@@H]5CCCN5C(C)(C)C4)n3)ccc2OC2CCOCC2)c1=O` (stereo in doubt) [Compound 52, 1-(5-(5-fluoro-4-(octahydro-5,5-dimethylindolizin-7-ylamino)pyrimidin-2-ylamino)-2-(tetrahydro-2H-pyran-4-yloxy)phenyl)-4-methyl-1H-tetrazol-5(4H)-one], the EC50 (Homo sapiens, T-cell, 24 h) is 100 to 500 nM. With `CC1(C)Oc2ccc(Nc3ncc(F)c(N[C@H]4C[C@H]5CCCN5C(C)(C)C4)n3)cc2-n2nnnc21` [Compound 1, N2-(4,4-dimethyl-4H-benzo[b]tetrazolo[1,5-d][1,4]oxazin-8-yl)-5-fluoro-N4-(octahydro-5,5-dimethylindolizin-7-amine)pyrimidine-2,4-diamine], the EC50 was 100 to 500 nM. The compound `CC1(C)Oc2ccc(Nc3ncc(F)c(N[C@@H]4C[C@H]5CCCN5C(C)(C)C4)n3)cc2-n2nnnc21` [Compound 2, N2-(4,4-dimethyl-4H-benzo[b]tetrazolo[1,5-d][1,4]oxazin-8-yl)-5-fluoro-N4-(octahydro-5,5-dimethylindolizin-7-amine)pyrimidine-2,4-diamine] returned an EC50 of under 100 nM. On the same count and under the same terms, next, `CC1(C)Oc2ccc(Nc3ncc(F)c(N[C@@H]4C[C@@H]5CCCN5C(C)(C)C4)n3)cc2-n2nnnc21` [Compound 4, N2-(4,4-dimethyl-4H-benzo[b]tetrazolo[1,5-d][1,4]oxazin-8-yl)-5-fluoro-N4-(octahydro-5,5-dimethylindolizin-7-amine)pyrimidine-2,4-diamine]: 1000 to 10000 nM; `CC1(C)Oc2c(F)cc(Nc3ncc(F)c(NC4CC5CCCN5C(C)(C)C4)n3)cc2-n2nnnc21` (stereo not drawn) [Compound 5]: 100 to 500 nM; `CC(C)N1CCC(Oc2ccc(Nc3ncc(F)c(NC4CC5CCCN5C(C)(C)C4)n3)cc2OC(F)F)CC1` (stereo not drawn) [Compound 6, (R/S, S/R, R/R, S/S)-N^2-(4-(1-isopropylpiperidin-4-yloxy)-3-(difluoromethoxy)phenyl)-5-fluoro-N^4-(octahydro-5,5-dimethylindolizin-7-yl)pyrimidine-2,4-diamine]: 100 to 500 nM. `Cc1ncc(Nc2ncc(F)c(NC3CC4CCCN4C(C)(C)C3)n2)cc1-n1nnnc1C` (stereo not drawn) [Compound 15] showed an EC50 of 100 to 500 nM. With `Cn1nnn(-c2cc(Nc3ncc(F)c(N[C@H]4C[C@H]5CCCN5C(C)(C)C4)n3)c(F)cc2C2CC2)c1=O` [Compound 18, 1-(5-(4-((7S,8aR)-Octahydro-5,5-dimethylindolizin-7ylamino)-5-fluoropyrimidin-2-ylamino)-2-cyclopropyl-4-fluorophenyl)-4-methyl-1H-tetrazol-5(4H)-one], the EC50 (Homo sapiens, T-cell, 24 h) lay in the range of 500 to 1000 nM. The compound `COc1cc(F)c(Nc2ncc(F)c(N[C@@H]3C[C@@H]4CCCN4C(C)(C)C3)n2)cc1-n1nnn(C)c1=O` [Compound 22, 1-(5-(4-((7R,8aS)-5,5-dimethyl-octahydroindolizin-7-ylamino)-5-fluoropyrimidin-2-ylamino)-4-fluoro-2-methoxyphenyl)-4-methyl-1H-tetrazol-5(4H)-one] returned a concentration giving a half-maximal response (EC50) (Homo sapiens, T-cell, 24 h) of 100 to 500 nM. `Cn1nnn(-c2cc(Nc3ncc(F)c(NC4CCN5CCCC5C4)n3)c(F)cc2C2CC2)c1=O` (stereo not drawn) [Compound 29] showed an EC50 of 1000 to 10000 nM. Regarding `Cn1nnn(-c2cc(Nc3ncc(F)c(N[C@H]4C[C@@H]5CCC(=O)N5C(C)(C)C4)n3)c(F)cc2C2CC2)c1=O` [Compound 33, 1-(5-(5-fluoro-4-(hexahydro-5,5-dimethylindolizin-3(5H)-one-7-ylamino)pyrimidin-2-ylamino)-2-cyclopropyl-4-fluorophenyl)-4-methyl-1H-tetrazol-5(4H)-one formate], the EC50 is 1000 to 10000 nM. The compound `Cn1nnn(-c2cc(Nc3ncc(F)c(NC4CC5CCCN5C(C)(C)C4)n3)ccc2OC2COC2)c1=O` (stereo not drawn) [Compound 40, 1-(5-(5-fluoro-4-(octahydro-5,5-dimethylindolizin-7-ylamino)pyrimidin-2-ylamino)-2-(oxetan-3-yloxy)phenyl)-4-methyl-1H-tetrazol-5(4H)-one] displayed an EC50 (Homo sapiens, T-cell, 24 h) of under 100 nM. `CC1(C)CC(Nc2nc(Nc3ccc(OC4CCOCC4)c(C#N)c3)ncc2F)CC2CCCN21` (stereo not drawn) [Compound 41, 5-(5-fluoro-4-(octahydro-5,5-dimethylindolizin-7-ylamino)pyrimidin-2-ylamino)-2-(tetrahydro-2H-pyran-4-yloxy)benzonitrile] gave an EC50 (Homo sapiens, T-cell, 24 h) of 100 to 500 nM.
